Data taken from patent US9453242B2, “Method and culture medium for preparing mammalian ovum or embryo in which zona pellucida has been thinned or eliminated, and method for fertilization using mammalian ovum prepared by same method” (NATIONAL UNIVERISTY CORPORATION KUMAMOTO UNIVERSITY, priority 2010, dated 2016).
Read-outs that look alike come from different tables or passages of the source.

Legend:
[1] = tested on: mouse unfertilized ovum (cumulus-oocyte complexes)
Protocol: A sperm suspension is pre-incubated in 90 μl of a TYH culture medium at 37° C. for 30 minutes, and under a stereomicroscope, sperms showing motility are collected, avoiding nonmotile sperms, and used for fertilization. The pre-incubated sperm suspension (10 μl) is added to 90 μl of an HTF culture medium (±glutathione) into which cumulus-oocyte complexes (COCs) have been previously introduced (insemination), and these are co-incubated in an incubator for 5 to 6 hours (37° C., 5% CO2), thereby performing fertilization. Thereafter, the ovum is washed with drops of new HTF, and the ovum is observed. Those judged to parthenogenetic (only one pronucleus is recognized in ooplasm) are excluded, and on the following day (24 hours after insemination), only 2-cell stage embryos are selected, and fertilization rate is determined according to the following formula. In vitro fertilization rate (%)=(number of 2-cell stage embryo)/(number of 2-cell stage embryo+number of unfertilized ovum)×100
According to the ordinary method as described above, fresh sperms and frozen sperms of C57BL/6J mice and refrigerated sperms (refrigerated for 2 days) of ICR mice were used to prepare sperm suspensions, which were used for conducting in vitro fertilization. Further, according to the ordinary method as described above, mouse fresh unfertilized ovums were prepared and cumulus-oocyte complexes were obtained.
The HTF culture medium was prepared according to the composition table described above. To the prepared HTF culture medium was added reduced glutathione so that its concentration was 1 mM (0.307 mg/ml), to prepare a glutathione-containing culture medium. Specifically, the HTF culture medium was prepared according to the composition table, and the culture medium was enclosed in an amount of 5 ml for each operation into an ample (component A). Further, 30.7 mg of reduced glutathione (available from SIGMA) and 593.8 mg of NaCl were mixed, then, the mixture was dispensed in one-time use amount (glutathione 1.535 mg/mixture 31.225 mg) (component B). Until use, these reagents were refrigerated, and directly before use, the component A and the component B were mixed and used for insemination. As the control, only the component A (THF culture medium containing no glutathione added) was used.
Specifically, into 90 μl of a HTF culture medium (glutathione concentration: 1 mM) containing cumulus-oocyte complexes (COCs) in a dish were added sperm suspensions (collected motile sperms) of fresh sperms, frozen sperms and refrigerated sperms each in an amount of 10 μl, and fertilization was conducted and fertilization rate was determined according to the above-described theory. An HTF culture medium containing no glutathione was used as the control.
Fertilization rate was investigated using various reduced glutathione concentrations, in the same manner as in Example 1. As the sperm, frozen sperms of C57BL/6J mice were used, and processed according to FIG. 1.
Regarding the sperms, fresh sperms and frozen sperms pre-incubated with MBCD were used in performing fertilization. The concentration of glutathione in an HTF culture medium was 0.25 mM in the case of fresh sperms and 1 mM in the case of frozen sperms. The sperms were pre-incubated with a MBCD-containing TYH culture medium (no glutathione) before fertilization, in the same manner as in Example 3. The pre-incubation time was 1 hour in the case of fresh sperms and 30 minutes in the case of frozen sperms.
The sperms were pre-incubated with a MBCD-containing TYH culture medium (no glutathione) before fertilization, in the same manner as in Example 3. The pre-incubation time was 1 hour.

[2] = tested on: protein thiol in zona pellucida; settings: glutathione 0.25 to 2.0 mM, 37° C., 1 hour; Alexa Fluor 488 C5-maleimide
Protocol: Mouse fresh unfertilized ovums in which cumulus cells had been removed prepared according to the above-described “1. Preparation of oocyte” were prepared, then, 100 μl of an HTF culture medium containing glutathione at various concentrations (0, 0.25, 0.5, 0.75, 1.0, 1.25, 1.5 and 2.0 mM) was dropped onto the bottom of a petri dish, and 50 embryos were inserted into this, and treated at 37° C. for 1 hour. Thereafter, a protein thiol in zona pellucida was detected by using a thiol-reactive fluorescent dye (Alexa Fluor 488 C5-maleimide).

Q: Which “fertilization rate (%)” value ([1]; 129T2/SvEmsJ, cryopreserved sperms pre-incubated with MBCD, glutathione 1 mM) does the source give for N[C@@H](CCC(=O)N[C@@H](CS)C(=O)NCC(=O)O)C(=O)O [glutathione, reduced glutathione] here?
A: 82.1%

Q: And the “fertilization rate (%)” value ([1]; 129T2/SvEmsJ, fresh sperms pre-incubated with MBCD, glutathione 0.25 mM)?
A: 84.9%

Q: What about the “fertilization rate (%)” value ([1]; B6C3F1, cryopreserved sperms pre-incubated with MBCD, glutathione 1 mM) of the same compound?
A: 87.6%

Q: What about the “fertilization rate (%)” value ([1]; B6C3F1, fresh sperms pre-incubated with MBCD, glutathione 0.25 mM) of the same compound?
A: 97.7%

Q: And the “fertilization rate (%)” value ([1]; BALB/c, cryopreserved sperms pre-incubated with MBCD, glutathione 1 mM)?
A: 68.3%

Q: What about the “fertilization rate (%)” value ([1]; BALB/c, fresh sperms pre-incubated with MBCD, glutathione 0.25 mM) of the same compound?
A: 74.7%

Q: What about the “fertilization rate (%)” value ([1]; BDF1, cryopreserved sperms pre-incubated with MBCD, glutathione 1 mM) of the same compound?
A: 98.3%

Q: What about the “fertilization rate (%)” value ([1]; BDF1, fresh sperms pre-incubated with MBCD, glutathione 0.25 mM) of the same compound?
A: 94.2%

Q: What about the “fertilization rate (%)” value ([1]; C3H/He, cryopreserved sperms pre-incubated with MBCD, glutathione 1 mM) of the same compound?
A: 98.0%

Q: What about the “fertilization rate (%)” value ([1]; C3H/He, fresh sperms pre-incubated with MBCD, glutathione 0.25 mM) of the same compound?
A: 97.5%

Q: What about the “fertilization rate (%)” value ([1]; C57BL/6J, cryopreserved sperms pre-incubated with MBCD, glutathione 1 mM) of the same compound?
A: 97.9%

Q: What about the “fertilization rate (%)” value ([1]; C57BL/6J, fresh sperms pre-incubated with MBCD, glutathione 0.25 mM) of the same compound?
A: 95.6%

Q: What about the “fertilization rate (%)” value ([1]; C57BL/6N, cryopreserved sperms pre-incubated with MBCD, glutathione 1 mM) of the same compound?
A: 90.9%

Q: And the “fertilization rate (%)” value ([1]; C57BL/6N, fresh sperms pre-incubated with MBCD, glutathione 0.25 mM)?
A: 90.9%

Q: What about the “fertilization rate (%)” value ([1]; DBA/2N, cryopreserved sperms pre-incubated with MBCD, glutathione 1 mM) of the same compound?
A: 95.8%

Q: And the “fertilization rate (%)” value ([1]; DBA/2N, fresh sperms pre-incubated with MBCD, glutathione 0.25 mM)?
A: 95.2%

Q: And the “fertilization rate (%)” value ([1]; ICR, cryopreserved sperms pre-incubated with MBCD, glutathione 1 mM)?
A: 94.9%

Q: What about the “fertilization rate (%)” value ([1]; ICR, fresh sperms pre-incubated with MBCD, glutathione 0.25 mM) of the same compound?
A: 93.8%

Q: What about the “reduced glutathione concentration giving remarkable improvement in fertilization rate” value ([1]; fresh sperms) of the same compound?
A: ≥ 0.075 mg/mL

Q: And the “fertilization rate (%)” value ([1]; fresh sperms of C57BL/6J mice, glutathione 1 mM in HTF)?
A: 82.5%

Q: And the “effect on fertilization rate” value ([1]; fresh sperms, various lineages, glutathione 0.25 mM)?
A: sufficient improvement in fertilization rate

Q: And the “glutathione concentration at which improvement in fertilization rate was confirmed” value ([1]; frozen C57BL/6J sperms)?
A: ≥ 0.5 mM

Q: And the “fertilization rate (%)” value ([1]; frozen sperms of C57BL/6J mice, glutathione 1 mM in HTF)?
A: 92.1%

Q: And the “effect on fertilization rate” value ([1]; frozen sperms, all mouse lineages, glutathione 1 mM)?
A: remarkable improvement in fertilization rate for frozen sperms

Q: And the “number of 2-cell stage embryo(%)” value ([1]; glutathione 0.25 mM, frozen C57BL/6J sperms)?
A: 67%

Q: What about the “number of 2-cell stage embryo” value ([1]; glutathione 0.25 mM, frozen C57BL/6J sperms, 279 oocytes) of the same compound?
A: 187

Q: And the “number of 2-cell stage embryo(%)” value ([1]; glutathione 0.50 mM, frozen C57BL/6J sperms)?
A: 79%

Q: What about the “number of 2-cell stage embryo” value ([1]; glutathione 0.50 mM, frozen C57BL/6J sperms, 316 oocytes) of the same compound?
A: 251

Q: And the “number of 2-cell stage embryo(%)” value ([1]; glutathione 0.75 mM, frozen C57BL/6J sperms)?
A: 82%

Q: And the “number of 2-cell stage embryo” value ([1]; glutathione 0.75 mM, frozen C57BL/6J sperms, 307 oocytes)?
A: 252

Q: What about the “effect on fertilization rate” value ([1]; glutathione 1 mM, fresh, frozen and refrigerated sperms) of the same compound?
A: significant improvement in fertilization rate

Q: What about the “number of 2-cell stage embryo(%)” value ([1]; glutathione 1.00 mM, frozen C57BL/6J sperms) of the same compound?
A: 92%

Q: What about the “number of 2-cell stage embryo” value ([1]; glutathione 1.00 mM, frozen C57BL/6J sperms, 276 oocytes) of the same compound?
A: 254

Q: What about the “number of 2-cell stage embryo(%)” value ([1]; glutathione 1.25 mM, frozen C57BL/6J sperms) of the same compound?
A: 93%

Q: And the “number of 2-cell stage embryo” value ([1]; glutathione 1.25 mM, frozen C57BL/6J sperms, 292 oocytes)?
A: 272

Q: What about the “number of 2-cell stage embryo(%)” value ([1]; glutathione 1.50 mM, frozen C57BL/6J sperms) of the same compound?
A: 89%

Q: What about the “number of 2-cell stage embryo” value ([1]; glutathione 1.50 mM, frozen C57BL/6J sperms, 294 oocytes) of the same compound?
A: 262

Q: And the “number of 2-cell stage embryo(%)” value ([1]; glutathione 2.00 mM, frozen C57BL/6J sperms)?
A: 92%

Q: And the “number of 2-cell stage embryo” value ([1]; glutathione 2.00 mM, frozen C57BL/6J sperms, 309 oocytes)?
A: 285

Q: What about the “number of 2-cell stage embryo(%)” value ([1]; glutathione 5.00 mM, frozen C57BL/6J sperms) of the same compound?
A: 86%

Q: What about the “number of 2-cell stage embryo” value ([1]; glutathione 5.00 mM, frozen C57BL/6J sperms, 292 oocytes) of the same compound?
A: 251

Q: And the “number of 2-cell stage embryo(%)” value ([1]; glutathione 10.00 mM, frozen C57BL/6J sperms)?
A: 81%

Q: And the “number of 2-cell stage embryo” value ([1]; glutathione 10.00 mM, frozen C57BL/6J sperms, 341 oocytes)?
A: 276

Q: What about the “fertilization rate (%)” value ([1]; refrigerated sperms (2 days) of ICR mice, glutathione 1 mM in HTF) of the same compound?
A: 63.9%

Q: What about the fertilization rate ([1]; refrigerated sperms of C57BL/6J mice pre-incubated with MBCD 1 hour, glutathione 0.5 mM) of the same compound?
A: 85.4%

Q: And the “fluorescent intensity in zona pellucida (free thiol group)” value [2]?
A: the fluorescent intensity in zona pellucida increased depending on the concentration of glutathione
